Source: article PMC3961306, “Comparison of the Cancer Gene Targeting and Biochemical Selectivities of All Targeted Kinase Inhibitors Approved for Clinical Use” (PLoS ONE, 2014)

Tests used:
Test in all cases: Kinase profiling in a biochemical assay panel (mobility shift assays and ELISA), %-inhibition at 1 μM; selectivity entropy
[1] = biological target: panel of more than 300 wild-type and mutant kinases (313 kinase panel) (Homo sapiens, UniProt P07333)
[2] = biological target: panel of more than 300 wild-type and mutant kinases (313 kinase panel) (Homo sapiens, UniProt P28482); conditions: kinase Erk2; compound at 1 μM
[3] = biological target: T1, panel of more than 300 wild-type and mutant kinases (313 kinase panel) (Homo sapiens, UniProt Q05513); conditions: kinase PKCζ; 1 μM
T1 sequence (Q05513 1-592): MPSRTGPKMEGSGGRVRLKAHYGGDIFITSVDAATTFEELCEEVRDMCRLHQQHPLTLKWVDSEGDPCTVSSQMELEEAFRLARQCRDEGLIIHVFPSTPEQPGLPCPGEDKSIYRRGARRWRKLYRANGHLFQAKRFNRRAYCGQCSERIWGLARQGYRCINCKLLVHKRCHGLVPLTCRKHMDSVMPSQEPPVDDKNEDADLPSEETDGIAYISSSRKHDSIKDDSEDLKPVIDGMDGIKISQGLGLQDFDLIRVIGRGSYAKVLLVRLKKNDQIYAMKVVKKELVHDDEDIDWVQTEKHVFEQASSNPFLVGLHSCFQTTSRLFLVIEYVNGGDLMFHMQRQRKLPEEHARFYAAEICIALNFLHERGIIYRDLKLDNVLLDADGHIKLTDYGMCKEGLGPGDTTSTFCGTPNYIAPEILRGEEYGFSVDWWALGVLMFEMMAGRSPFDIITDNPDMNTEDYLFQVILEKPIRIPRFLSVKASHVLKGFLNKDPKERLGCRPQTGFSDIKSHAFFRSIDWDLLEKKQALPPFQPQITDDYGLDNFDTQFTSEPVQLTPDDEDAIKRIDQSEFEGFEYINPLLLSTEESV

[4] = biological target: T2, panel of more than 300 wild-type and mutant kinases (313 kinase panel) (Homo sapiens, UniProt Q15139)
T2 sequence (Q15139 1-912): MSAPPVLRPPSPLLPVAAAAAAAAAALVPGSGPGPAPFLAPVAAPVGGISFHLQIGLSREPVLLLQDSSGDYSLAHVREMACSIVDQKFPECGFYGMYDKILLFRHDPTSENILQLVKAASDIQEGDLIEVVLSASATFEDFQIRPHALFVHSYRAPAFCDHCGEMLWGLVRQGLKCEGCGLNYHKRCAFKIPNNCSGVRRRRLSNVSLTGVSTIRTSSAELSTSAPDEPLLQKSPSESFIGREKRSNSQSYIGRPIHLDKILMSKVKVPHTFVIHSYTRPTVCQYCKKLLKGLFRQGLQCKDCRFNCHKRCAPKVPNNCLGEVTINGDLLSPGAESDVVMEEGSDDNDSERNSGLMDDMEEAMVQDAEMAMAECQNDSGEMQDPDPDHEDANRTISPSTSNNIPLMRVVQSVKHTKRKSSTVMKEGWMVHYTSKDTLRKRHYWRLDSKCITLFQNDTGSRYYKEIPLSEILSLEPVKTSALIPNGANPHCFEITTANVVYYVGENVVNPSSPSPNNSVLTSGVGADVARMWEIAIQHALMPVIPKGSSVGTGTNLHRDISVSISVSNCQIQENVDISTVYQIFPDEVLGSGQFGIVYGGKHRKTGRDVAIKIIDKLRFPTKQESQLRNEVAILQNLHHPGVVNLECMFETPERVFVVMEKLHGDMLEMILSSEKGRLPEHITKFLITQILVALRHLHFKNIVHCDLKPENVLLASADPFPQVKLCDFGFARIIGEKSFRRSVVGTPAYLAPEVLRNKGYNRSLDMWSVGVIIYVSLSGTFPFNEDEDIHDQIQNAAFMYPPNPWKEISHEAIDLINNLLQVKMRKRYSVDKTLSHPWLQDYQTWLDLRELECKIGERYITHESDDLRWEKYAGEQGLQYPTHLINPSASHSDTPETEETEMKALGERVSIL

[5] = biological target: T3, panel of more than 300 wild-type and mutant kinases (313 kinase panel) (Homo sapiens, UniProt Q16566); conditions: kinase CaMK4; 1 μM compound
T3 sequence (Q16566 1-473): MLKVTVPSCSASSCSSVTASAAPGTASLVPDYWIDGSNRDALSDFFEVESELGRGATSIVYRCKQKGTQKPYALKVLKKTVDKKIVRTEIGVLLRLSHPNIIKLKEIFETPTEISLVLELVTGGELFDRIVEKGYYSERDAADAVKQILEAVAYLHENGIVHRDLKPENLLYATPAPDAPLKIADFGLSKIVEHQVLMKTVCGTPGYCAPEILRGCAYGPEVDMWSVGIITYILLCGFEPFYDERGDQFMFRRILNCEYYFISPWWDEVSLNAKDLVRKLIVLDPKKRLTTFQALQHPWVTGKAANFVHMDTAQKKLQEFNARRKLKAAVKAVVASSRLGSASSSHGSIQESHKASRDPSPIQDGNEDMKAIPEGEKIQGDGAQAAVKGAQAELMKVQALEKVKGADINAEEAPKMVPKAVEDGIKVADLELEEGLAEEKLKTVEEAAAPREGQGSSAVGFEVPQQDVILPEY

[6] = biological target: panel of more than 300 wild-type and mutant kinases (313 kinase panel) (Homo sapiens, UniProt Q16644); conditions: kinase MAPKAPK3; compound at 1 μM
Chain of panel of more than 300 wild-type and mutant kinases (313 kinase panel) (Homo sapiens, UniProt Q16644) (Q16644 whole entry, change not shown): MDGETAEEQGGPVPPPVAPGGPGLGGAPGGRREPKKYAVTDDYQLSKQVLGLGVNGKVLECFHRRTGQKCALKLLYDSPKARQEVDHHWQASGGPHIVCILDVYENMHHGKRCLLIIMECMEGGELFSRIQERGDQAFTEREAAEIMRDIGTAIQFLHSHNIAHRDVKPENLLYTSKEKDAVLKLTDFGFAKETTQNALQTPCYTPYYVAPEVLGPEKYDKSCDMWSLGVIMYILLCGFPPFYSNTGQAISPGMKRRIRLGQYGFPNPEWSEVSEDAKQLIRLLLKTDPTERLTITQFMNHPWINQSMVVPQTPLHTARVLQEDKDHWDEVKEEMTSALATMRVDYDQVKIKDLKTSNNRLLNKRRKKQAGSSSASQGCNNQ

[7] = biological target: panel of more than 300 wild-type and mutant kinases (313 kinase panel) (Homo sapiens, UniProt Q5VT25); conditions: kinase MRCKα; 1 μM
[8] = biological target: panel of more than 300 wild-type and mutant kinases (313 kinase panel) (Homo sapiens, UniProt Q8IU85); conditions: kinase CaMK1δ; 1 μM compound
[9] = biological target: panel of more than 300 wild-type and mutant kinases (313 kinase panel) (Homo sapiens, UniProt Q9H1R3); conditions: kinase skMLCK; 1 μM

Row | SMILES | %-inhibition of FMS ([1]; kinase FMS, compound at 1 μM) [%] | %-inhibition of Erk2 [2] [%] | %-inhibition of PKCζ [3] [%] | %-inhibition of PKD1 ([4]; kinase PKD1, 1 μM) [%] | %-inhibition, CaMK4 [5] [%] | %-inhibition of MAPKAPK3 [6] [%] | %-inhibition of MRCKα [7] [%] | %-inhibition, CaMK1δ [8] [%] | %-inhibition of skMLCK [9] [%] | %-inhibition of FMS ([1]; 1 µM) [%] | %-inhibition of PKD1 ([4]; 1 µM) [%]
1 | CC(=O)Nc1cccc(-n2c(=O)n(C3CC3)c(=O)c3c(Nc4ccc(I)cc4F)n(C)c(=O)c(C)c32)c1 [trametinib] | -4 | -5 | 4.31 | 9 | -5.45 | -9 | -0.565 | -3.3 | -3.34 |  | 
2 | O=S(=O)(c1cccc2cnccc12)N1CCCNCC1 [fasudil] | -3 | -7 | 7.57 | 64 | -5.66 | -14 | -2.54 | -4 | -1.56 |  | 
3 | COc1cc2nccc(Oc3ccc(NC(=O)C4(C(=O)Nc5ccc(F)cc5)CC4)cc3)c2cc1OC [cabozantinib] | 54 | -8 | 4 | -12 | -10 | -9 | 0.575 | -1.37 | 12 |  | 
4 | CCCS(=O)(=O)Nc1ccc(F)c(C(=O)c2c[nH]c3ncc(-c4ccc(Cl)cc4)cc23)c1F [vemurafenib] | 6 | -4.58 | 13 | 43 | -2.38 | 12 | 0.383 | -7 | 53 |  | 
5 | CNC(=O)c1cc(Oc2ccc(NC(=O)Nc3ccc(Cl)c(C(F)(F)F)c3)c(F)c2)ccn1 [regorafenib] | 92 | -5 | 5 | 37 | -0.0486 | -15 | -5 | -5.29 | 6.59 |  | 
6 | CO[C@H]1C[C@@H]2CC[C@@H](C)[C@@](O)(O2)C(=O)C(=O)N2CCCC[C@H]2C(=O)O[C@H]([C@H](C)C[C@@H]2CC[C@@H](OC(=O)C(C)(CO)CO)[C@H](OC)C2)CC(=O)[C@H](C)/C=C(\C)[C@@H](O)[C@@H](OC)C(=O)[C@H](C)C[C@H](C)/C=C/C=C/C=C/1C [temsirolimus] | -1.41 | -6 | 5 | -17 | -9 | -11 | -1.53 | -7 | -1.73 |  | 
7 | Cc1cn(-c2cc(NC(=O)c3ccc(C)c(Nc4nccc(-c5cccnc5)n4)c3)cc(C(F)(F)F)c2)cn1 [nilotinib] |  | 1.49 | 5.32 |  | 3.54 | 2 | -13 | 3.56 | -14 | 52 | -6
